# Experimental data taken from patent publication US20220153732A1, “PROTEIN SECRETION INHIBITORS” (KEZAR LIFE SCIENCES, priority 2019, published 2022).
# Legend:
# Type in all cases: cell-based
# [1] = system: PD1-ss+10aa/Gaussia Luciferase; test: Dox-Induced PD1-ss-Gluc Assay; settings: 24 hr doxycycline induction, 293FRT/TO cells, Gaussia luciferase signal; read-out: 24 hr Dox Inducible PD1ssGluc 293FRT/TO: Mean IC50
# Summary of the method: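 Stable cell line carrying PD1-ss+10aa/Gaussia luciferase cDNA under T-REx (doxycycline-inducible) control, plated the day before assay. Compound dilutions in DMSO/media containing doxycycline added and incubated at 37° C, 5% CO2. Undefined stereocentres: data refer to stereoisomer mixtures.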
# [2] = system: TNFα-FL/Gaussia Luciferase; test: Dox Induced TNFα-FL-Gluc Assay; settings: 24 hr doxycycline induction, 293FRT/TO cells, Gaussia luciferase signal; read-out: 24 hr Dox Inducible TNFaFLGluc 293FRT/TO: Mean IC50
# Summary of the method: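 A stable T-REx cell line carrying doxycycline-inducible TNFα-FL/Gaussia luciferase was plated the day before assay. Compound dilutions in DMSO/media containing doxycycline were then added and incubated at 37° C, 5% CO2.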
# [3] = system: HER3-ss+4aa/Gaussia Luciferase; test: Dox-Induced Her3-ss-Gluc Assay; settings: 24 hr doxycycline induction, 293FRT/TO cells, Gaussia luciferase signal; read-out: 24 hr Dox Inducible Her3(ss + 4)Gluc 293FRT/TO: Mean IC50
# Summary of the method: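 Stable T-REx cell line carrying a doxycycline-regulated HER3-ss+4aa/Gaussia luciferase insert, plated the day before assay. Compound dilutions in DMSO/media with doxycycline added, then incubated at 37° C., 5% CO2. Stereoisomer mixtures tested where stereochemistry is not drawn.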
# [4] = system: IL-2-FL/Gaussia Luciferase; test: Dox Induced IL2-FL-Gluc Assay; settings: 24 hr doxycycline induction, 293FRT/TO cells, Gaussia luciferase signal; read-out: 24 hr Dox Inducible IL2FLGIuc 293FRT/TO: Mean IC50
# Summary of the method: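 Stable T-REx cell line expressing doxycycline-inducible IL-2-FL/Gaussia luciferase cDNA, plated the day before assay. Compound dilutions in DMSO/media containing doxycycline added and incubated at 37° C., 5% CO2. Unspecified stereochemistry means data refer to a stereoisomer mixture.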
# [5] = system: human multiple myeloma cell line NCI-H929; test: H929 Cell Viability Assay; settings: 48 hr, NCI-H929 cells, Celltiter-Glo, read-out: 48 hr H929 Viability Celltiter-Glo: Mean EC50
# Description: Plates were incubated at 37° C., 5% CO2 for 48 hours. After 48 hours, Celltiter-Glo® (Promega) was added to each well and luciferase signal was quantified using Tecan Infinite M1000 Pro for cell viability determination.
# For chemical structures that include one or more stereoisomers, but are illustrated without indicating stereochemistry, the assay data refers to a mixture of stereoisomers.
# [6] = system: human multiple myeloma cell line U266B1; test: U266 Cell Viability Assay; settings: U-266, 48 hr, U266B1 cells, Celltiter-Glo, read-out: 48 hr U266 Viability Celltiter-Glo: Mean EC50
# Summary of the method: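 U266B1 myeloma cells treated with compound dilutions in DMSO/media for 48 h at 37 °C, 5% CO2. Viability read by CellTiter-Glo luminescence. Stereochemically undefined structures were tested as stereoisomer mixtures.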
IC50 [1] [nM],IC50 [2] [nM],IC50 [3] [nM],IC50 [4] [nM],EC50 [5] [nM],EC50 [6] [nM],SMILES
13,20300,1570,2920,> 21600,> 25000,"COc1ccc(/C=C/c2csc(NC(=O)c3cccn3Cc3ccncc3)n2)nc1 [Compound A269, N-(4-(2-(5-methoxypyridin-2-yl)vinyl)thiazol-2-yl)-1-(pyridin-4-ylmethyl)-1H-pyrrole-2-carboxamide]"
161,1740,463,599,10400,> 25000,O=C(Nc1nc([C@H]2CCC[C@@H](c3ccccc3)C2)cs1)c1cccn1Cc1ccncc1 [Compound A270]
316,2870,912,951,15500,> 25000,O=C(Nc1nc([C@@H]2CCC[C@@H](c3ccccc3)C2)cs1)c1cccn1Cc1ccncc1 [Compound A271]
261,> 25000,1720,> 25000,> 25000,> 25000,O=C(Nc1nc(/C=C/c2ccc3c(n2)OCO3)cs1)c1cccn1Cc1ccncc1 [Compound A272]
> 25000,> 25000,> 25000,> 25000,> 25000,> 25000,O=C(Nc1nc(N2CCC(c3ccccc3)C2)cs1)c1cccn1Cc1ccncc1 (stereo not drawn) [Compound A273]
363,22300,2550,3740,23900,> 25000,O=C(Nc1nc(/C=C/c2cnc3c(c2)OCO3)cs1)c1cccn1Cc1ccncc1 [Compound A274]
15,147,32,29,1470,> 25000,O=C(Nc1nc([C@H]2CCCN2c2ccccc2)cs1)c1cccn1Cc1ccncc1 [Compound A275]
287,2470,859,1500,19400,> 25800,O=C(Nc1nc([C@@H]2CCCN2c2ccccc2)cs1)c1cccn1Cc1ccncc1 [Compound A276]
325,4060,819,769,18700,> 25000,O=C(Nc1nc([C@@H]2CCCN2Cc2ccccc2)cs1)c1cccn1Cc1ccncc1 [Compound A277]
538,5000,1130,1270,> 23900,> 25000,O=C(Nc1nc([C@H]2CCCN2Cc2ccccc2)cs1)c1cccn1Cc1ccncc1 [Compound A278]
1140,> 25000,4200,4970,> 25000,> 25000,O=C(Nc1nc([C@H]2CCN(Cc3ccccc3)C2)cs1)c1cccn1Cc1ccncc1 [Compound A279]
12700,> 25000,> 25000,> 25000,> 25000,> 25000,"CC(C)OC(C)(C)c1csc(NC(=O)c2ccccc2Cc2ccncc2)n1 [Compound A280, N-(4-(2-isopropoxypropan-2-yl)thiazol-2-yl)-2-(pyridin-4-ylmethyl)benzamide]"
244,1950,817,1160,11000,> 25000,O=C(Nc1nc(C2Cc3ccccc3C2)cs1)c1cccn1Cc1ccncc1 [Compound A281]
324,4660,864,1500,7080,12500,O=C(Nc1nc(C2CCN(c3ccccc3)CC2)cs1)c1cccn1Cc1ccncc1 [Compound A282]
1350,7180,3070,3860,23000,> 25000,O=C(Nc1nc(C2CCc3ccccc3O2)cs1)c1cccn1Cc1ccncc1 (stereo not drawn) [Compound A283]
